Results reported in US6737383B1, “Herbicidal oxadiazolidines” (priority 1999, dated 2004).

Key:
soybean = experiment: Test B pre/postemergence soybean; assay type: in vivo, Glycine max
Method in brief: (§1)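 Response is a visual 0-to-10 score relative to untreated plants, where 0 means no effect and 10 means complete control, taken twelve to sixteen days after application. Treatments went onto soil at planting and onto foliage of 1- to 4-leaf plants, using a surfactant-containing non-phytotoxic solvent.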

pigweed = experiment: Test B pre/postemergence pigweed; assay type: in vivo, Amaranthus retroflexus
Method in brief: as §1

velvetleaf = experiment: Test B pre/postemergence velvetleaf; assay type: in vivo, Abutilon theophrasti
Method in brief: as §1

crabgrass = experiment: Test B pre/postemergence crabgrass; assay type: in vivo, Digitaria sanguinalis
Method in brief: as §1

rape = experiment: Test B pre/postemergence rape; assay type: in vivo, Brassica napus
Method in brief: as §1

corn = experiment: Test B pre/postemergence corn; assay type: in vivo, Zea mays
Method in brief: as §1

giant foxtail = experiment: Test B pre/postemergence giant foxtail; assay type: in vivo, Setaria faberii
Method in brief: as §1

wild oat = experiment: Test B pre/postemergence wild oat; assay type: in vivo, Avena fatua
Method in brief: as §1

duck salad = experiment: Test B flood test duck salad; assay type: in vivo, Heteranthera limosa
Method in brief: (§2)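 Each value is a visual injury score relative to controls, with 10 meaning complete control and 0 no effect. Evaluation took place twelve to sixteen days after the 2-leaf-stage plants were treated and kept in the greenhouse.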

purple nutsedge = experiment: Test B pre/postemergence purple nutsedge; assay type: in vivo, Cyperus rotundus
Method in brief: as §1

cocklebur = experiment: Test B pre/postemergence cocklebur; assay type: in vivo, Xanthium strumarium
Method in brief: as §1

rice = experiment: Test B flood test rice; assay type: in vivo, Oryza sativa
Method in brief: as §2

bamyardgrass = experiment: Test B flood test barnyardgrass; assay type: in vivo, Echinochloa crus-galli
Method in brief: as §2

morningglory = experiment: Test B pre/postemergence morningglory; assay type: in vivo, Ipomoea hederacea
Method in brief: as §1

wheat = experiment: Test B pre/postemergence wheat; assay type: in vivo, Triticum aestivum
Method in brief: as §1

sugar beet = experiment: Test B pre/postemergence sugar beet; assay type: in vivo, Beta vulgaris
Method in brief: as §1

[1] = Postemergence, Rate 250 g/ha, scale 0 to 10
[2] = Postemergence, Rate 500 g/ha, scale of 0 to 10 where 0 is no effect and 10 is complete control
[3] = Preemergence, Rate 62 g/ha, scale of 0 to 10 where 0 is no effect and 10 is complete control
[4] = Preemergence, Rate 125 g/ha, scale of 0 to 10 where 0 is no effect and 10 is complete control
[5] = Preemergence, Rate 250 g/ha, scale 0 to 10, 0 is no effect, 10 is complete control
[6] = Preemergence, Rate 500 g/ha, scale 0 to 10, 0 is no effect, 10 is complete control
[7] = Rate 62 g/ha, Postemergence, scale 0 to 10, 0 no effect, 10 complete control
[8] = Rate 125 g/ha, Postemergence, scale 0 to 10, 0 is no effect, 10 is complete control
[9] = Rate 62 g/ha, flood test species, Pre-emergence, visual evaluation after twelve to sixteen days
[10] = Rate 125 g/ha, under heading Pre-emergence, flood test species, visual evaluation after twelve to sixteen days
[11] = Rate 250 g/ha, Pre-emergence (flood test species), scale 0 to 10, 0 is no effect, 10 is complete control
[12] = Rate 500 g/ha, Pre-emergence, flood test species, scale 0 to 10 (0 no effect, 10 complete control)

COC(C)n1c(=O)on(C(=O)N(c2ccc(F)cc2)C(C)C)c1=O (centres unmarked) [Compound 439]
0: Soybean plant response rating (soybean; [1]) | Soybean plant response rating (soybean; [2]) | Plant response rating, Soybean (soybean; [3]) | Plant response rating, Soybean (soybean; [4]) | Soybean plant response rating (soybean; [5]) | Soybean plant response rating (soybean; [6]) | Soybean plant response rating (soybean; [7]) | Soybean plant response rating (soybean; [8]) | Redroot pigweed plant response rating (pigweed; [1]) | Redroot pigweed plant response rating (pigweed; [2]) | Plant response rating, Redroot pigweed (pigweed; [3]) | Plant response rating, Redroot pigweed (pigweed; [4]) | Redroot pigweed plant response rating (pigweed; [5]) | Redroot pigweed plant response rating (pigweed; [6]) | Redroot pigweed plant response rating (pigweed; [7]) | Redroot pigweed plant response rating (pigweed; [8]) | Velvetleaf plant response rating (velvetleaf; [1]) | Velvetleaf plant response rating (velvetleaf; [2]) | Plant response rating, Velvetleaf (velvetleaf; [3]) | Plant response rating, Velvetleaf (velvetleaf; [4]) | Velvetleaf plant response rating (velvetleaf; [5]) | Velvetleaf plant response rating (velvetleaf; [6]) | Velvetleaf plant response rating (velvetleaf; [7]) | Velvetleaf plant response rating (velvetleaf; [8]) | Crabgrass plant response rating (crabgrass; [1]) | Crabgrass plant response rating (crabgrass; [2]) | Plant response rating, Crabgrass (crabgrass; [3]) | Plant response rating, Crabgrass (crabgrass; [4]) | Crabgrass plant response rating (crabgrass; [5]) | Crabgrass plant response rating (crabgrass; [6]) | Crabgrass plant response rating (crabgrass; [7]) | Crabgrass plant response rating (crabgrass; [8]) | Rape plant response rating (rape; [1]) | Rape plant response rating (rape; [2]) | Plant response rating, Rape (rape; [3]) | Plant response rating, Rape (rape; [4]) | Rape plant response rating (rape; [5]) | Rape plant response rating (rape; [6]) | Rape plant response rating (rape; [7]) | Rape plant response rating (rape; [8]) | Corn plant response rating (corn; [1]) | Corn plant response rating (corn; [2]) | Plant response rating, Corn (corn; [3]) | Plant response rating, Corn (corn; [4]) | Corn plant response rating (corn; [5]) | Corn plant response rating (corn; [6]) | Corn plant response rating (corn; [7]) | Corn plant response rating (corn; [8]) | Giant foxtail plant response rating (giant foxtail; [1]) | Giant foxtail plant response rating (giant foxtail; [2]) | Plant response rating, Giant foxtail (giant foxtail; [3]) | Plant response rating, Giant foxtail (giant foxtail; [4]) | Giant foxtail plant response rating (giant foxtail; [5]) | Giant foxtail plant response rating (giant foxtail; [6]) | Giant foxtail plant response rating (giant foxtail; [7]) | Giant foxtail plant response rating (giant foxtail; [8]) | Wild oats plant response rating (wild oat; [1]) | Wild oats plant response rating (wild oat; [2]) | Plant response rating, Wild oats (wild oat; [3]) | Plant response rating, Wild oats (wild oat; [4]) | Wild oats plant response rating (wild oat; [5]) | Wild oats plant response rating (wild oat; [6]) | Wild oats plant response rating (wild oat; [7]) | Wild oats plant response rating (wild oat; [8]) | Plant response rating, Ducksalad (0 to 10 scale, 0 is no effect, 10 is complete control) (duck salad; [9]) | Ducksalad plant response rating (0 to 10 scale, 0 is no effect, 10 is complete control) (duck salad; [10]) | Ducksalad plant response rating (duck salad; [11]) | Ducksalad plant response rating (duck salad; [12]) | Nutsedge plant response rating (purple nutsedge; [1]) | Nutsedge plant response rating (purple nutsedge; [2]) | Plant response rating, Nutsedge (purple nutsedge; [3]) | Plant response rating, Nutsedge (purple nutsedge; [4]) | Nutsedge plant response rating (purple nutsedge; [5]) | Nutsedge plant response rating (purple nutsedge; [6]) | Nutsedge plant response rating (purple nutsedge; [7]) | Nutsedge plant response rating (purple nutsedge; [8]) | Cocklebur plant response rating (cocklebur; [1]) | Cocklebur plant response rating (cocklebur; [2]) | Plant response rating, Cocklebur (cocklebur; [3]) | Plant response rating, Cocklebur (cocklebur; [4]) | Cocklebur plant response rating (cocklebur; [5]) | Cocklebur plant response rating (cocklebur; [6]) | Cocklebur plant response rating (cocklebur; [7]) | Cocklebur plant response rating (cocklebur; [8]) | Plant response rating, Rice (0 to 10 scale, 0 is no effect, 10 is complete control) (rice; [9]) | Rice plant response rating (0 to 10 scale, 0 is no effect, 10 is complete control) (rice; [10]) | Rice plant response rating (rice; [11]) | Rice plant response rating (rice; [12]) | Plant response rating, Barnyardgrass (0 to 10 scale, 0 is no effect, 10 is complete control) (bamyardgrass; [9]) | Barnyardgrass plant response rating (0 to 10 scale, 0 is no effect, 10 is complete control) (bamyardgrass; [10]) | Barnyardgrass plant response rating (bamyardgrass; [11]) | Barnyardgrass plant response rating (bamyardgrass; [12]) | Morningglory plant response rating (morningglory; [1]) | Morningglory plant response rating (morningglory; [2]) | Plant response rating, Morningglory (morningglory; [3]) | Plant response rating, Morningglory (morningglory; [4]) | Morningglory plant response rating (morningglory; [5]) | Morningglory plant response rating (morningglory; [6]) | Morningglory plant response rating (morningglory; [7]) | Morningglory plant response rating (morningglory; [8]) | Wheat plant response rating (wheat; [1]) | Wheat plant response rating (wheat; [2]) | Plant response rating, Wheat (wheat; [3]) | Plant response rating, Wheat (wheat; [4]) | Wheat plant response rating (wheat; [5]) | Wheat plant response rating (wheat; [6]) | Wheat plant response rating (wheat; [7]) | Wheat plant response rating (wheat; [8]) | Sugarbeets plant response rating (sugar beet; [1]) | Sugarbeets plant response rating (sugar beet; [2]) | Plant response rating, Sugarbeets (sugar beet; [3]) | Plant response rating, Sugarbeets (sugar beet; [4]) | Sugarbeets plant response rating (sugar beet; [5]) | Sugarbeets plant response rating (sugar beet; [6]) | Sugarbeets plant response rating (sugar beet; [7]) | Sugarbeets plant response rating (sugar beet; [8])
